Laboratory results published in ChEMBL document CHEMBL4706498, “Rosuvastatin based novel 3-substituted isocoumarins / 3-alkylidenephthalides: Ultrasound assisted synthesis and identification of new anticancer agents” (Eur J Med Chem, 2020).
pIC50: −log10 of the molar value. Active and inactive are the calls of the source. The calls are words filed in the database; no cut-off is given here.

How the values were obtained:
HCT-116 [1] = experiment: Cytotoxicity against human HCT-116 cells assessed as inhibition of cell growth at 10 uM measured after 24 hrs by MTT assay (reference value: 0.17%); type: functional
HepG2 = experiment: Cytotoxicity against human HepG2 cells assessed as inhibition of cell growth at 10 uM measured after 24 hrs by MTT assay (reference value: 0.21%); type: functional
PA-1 [2] = experiment: Cytotoxicity against human PA-1 cells assessed as inhibition of cell growth at 10 uM measured after 24 hrs by MTT assay (reference value: 0.19%); type: functional
[3] = Cytotoxicity against human HEK cells assessed as inhibition of cell growth at 10 uM measured after 24 hrs by MTT assay (reference value: 0.11%); type: cell-based
HCT-116 [4] = experiment: Cytotoxicity against human HCT-116 cells assessed as inhibition of cell growth measured after 24 hrs by MTT assay; type: functional, cell-based; details: HCT-116, 24 h
PA-1 [5] = experiment: Cytotoxicity against human PA-1 cells assessed as inhibition of cell growth measured after 24 hrs by MTT assay; type: functional, cell-based; details: PA-1, 24 h
PANC-1 [6] = experiment: Inhibition of human Akt in human PANC-1 cells assessed as inhibition of Akt phosphorylation at 50 uM measured after 18 hrs by Western blot assay; type: cell-based
PANC-1 [7] = experiment: Inhibition of human Akt in human PANC-1 cells assessed as cell growth arrest at 50 uM measured after 18 hrs by Western blot assay; type: cell-based
PANC-1 [8] = experiment: Cytotoxicity against human PANC-1 cells assessed as decrease in cell viability at 50 uM measured after 18 hrs by MTT assay; type: functional, cell-based
[9] = Inhibition of Protein kinase A (unknown origin); set-up: species or system Homo sapiens
[10] = Stability of compound assessed as parent compound remaining after 60 mins in rat liver microsomes; type: ADME, Microsome; details: read-out: Stabilty
[11] = Microsomal stability in rat liver microsomes assessed as half life; type: ADME, Microsome
[12] = Microsomal stability in rat liver microsomes assessed as intrinsic clearance; type: ADME, Microsome; details: read-out: CLH
[13] = Toxicity in zebra fish embryo measured 5 days post fertilization by measuring teratogenicity at 1 to 100 uM; set-up: species or system Danio rerio; details: zebrafish, 120 h, dose 1-100 µM, time 5 day
[14] = Hepatotoxicity in 4 days post fertilize zebra fish embryo measured 7 days post fertilization at 1 to 100 uM; type: toxicity, Danio rerio; details: zebrafish, dose 1-100 µM
[15] = Toxicity in 7 days post fertilize zebrafish embryo assessed as morphological abnormalities or atrioventricular blocks measured after 24 hrs by bright field microscopic analysis; set-up: species or system Danio rerio; details: in vivo, dose 1-100 µM
[16] = Toxicity in 7 days post fertilize zebrafish embryo assessed as death at 1 to 100 uM after 24 hrs; set-up: species or system Danio rerio; details: in vivo, dose 1-100 µM
[17] = Toxicity in 7 days post fertilize zebrafish embryo assessed as morphological abnormalities at 1 to 100 uM after 24 hrs; set-up: species or system Danio rerio; details: in vivo, dose 1-100 µM
[18] = target: T1, RAC-alpha serine/threonine-protein kinase (Homo sapiens, UniProt P31749); experiment: Binding affinity to Akt1 (unknown origin)
T1 sequence (P31749 whole entry): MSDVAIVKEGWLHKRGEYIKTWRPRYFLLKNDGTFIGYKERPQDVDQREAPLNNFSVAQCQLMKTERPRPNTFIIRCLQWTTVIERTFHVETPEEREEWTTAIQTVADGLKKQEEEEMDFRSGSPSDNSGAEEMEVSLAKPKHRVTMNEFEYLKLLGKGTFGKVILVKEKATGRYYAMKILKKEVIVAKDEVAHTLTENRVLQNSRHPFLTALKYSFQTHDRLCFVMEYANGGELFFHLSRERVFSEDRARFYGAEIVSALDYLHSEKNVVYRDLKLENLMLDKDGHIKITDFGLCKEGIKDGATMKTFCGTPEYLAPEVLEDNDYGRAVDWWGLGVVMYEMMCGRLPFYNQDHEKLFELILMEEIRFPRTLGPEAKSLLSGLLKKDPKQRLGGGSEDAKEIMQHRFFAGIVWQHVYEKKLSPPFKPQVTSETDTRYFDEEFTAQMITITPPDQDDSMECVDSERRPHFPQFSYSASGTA

[19] = target: RAC-beta serine/threonine-protein kinase (Homo sapiens) (UniProt P31751); experiment: Binding affinity to Akt2 (unknown origin)
Sequence of RAC-beta serine/threonine-protein kinase (Homo sapiens) (P31751 whole entry): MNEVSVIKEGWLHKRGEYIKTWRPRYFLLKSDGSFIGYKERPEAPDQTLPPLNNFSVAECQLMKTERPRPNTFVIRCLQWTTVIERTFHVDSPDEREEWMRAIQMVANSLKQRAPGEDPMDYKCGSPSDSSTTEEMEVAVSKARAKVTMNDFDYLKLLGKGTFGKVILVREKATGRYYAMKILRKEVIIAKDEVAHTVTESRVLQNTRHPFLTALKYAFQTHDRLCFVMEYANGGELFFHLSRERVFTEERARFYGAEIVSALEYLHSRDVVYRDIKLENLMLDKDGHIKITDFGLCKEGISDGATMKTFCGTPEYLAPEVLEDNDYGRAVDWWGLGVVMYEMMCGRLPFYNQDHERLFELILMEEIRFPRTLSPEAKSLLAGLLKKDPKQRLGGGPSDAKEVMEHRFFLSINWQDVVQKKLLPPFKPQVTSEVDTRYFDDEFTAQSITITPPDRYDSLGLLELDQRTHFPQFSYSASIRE

[20] = target: T1, RAC-alpha serine/threonine-protein kinase
Description: Inhibition of Akt-1 (unknown origin)

SMILES	inhibition at 10 µM (HCT-116 [1]) [%]	inhibition at 10 µM (HepG2) [%]	inhibition at 10 µM (PA-1 [2]) [%]	inhibition at 24 h, 10 µM [3] [%]	other results
COc1cccc2c1/C(=C/COCc1c(-c3ccc(F)cc3)nc(N(C)S(C)(=O)=O)nc1C(C)C)OC2=O	25.4	26.5	24.3	4.1	–
CC(C)c1nc(N(C)S(C)(=O)=O)nc(-c2ccc(F)cc2)c1COC/C=C1\OC(=O)c2ccc(F)cc21	19.8	27.5	15.1	1.7	–
COc1cc2cc(COCc3c(-c4ccc(F)cc4)nc(N(C)S(C)(=O)=O)nc3C(C)C)oc(=O)c2cc1OC	65.6	48.7	68.4	4.9	pIC50 (HCT-116 [4]): 8.35; pIC50 (PA-1 [5]): 9.12; inhibition (PANC-1 [6]): Active; inhibition (PANC-1 [7]): Active; inhibition (PANC-1 [8]): Active; pIC50 [9]: < 5.00; remaining at 1 h [10]: 47.2%; half-life [11]: 1.83 h; microsomal CLint [12]: 26.3 µL/min/mg; Activity [13]: Non-Toxic; Activity [14]: Non-Toxic; Activity [15]: Non-Toxic; Activity [16]: Non-Toxic; Activity [17]: Non-Toxic; Activity [18]: -11.3 kcal/mol; Activity [19]: -10.6 kcal/mol; pIC50 [20]: 5.37
Cc1cc(Cl)cc2c1/C(=C/COCc1c(-c3ccc(F)cc3)nc(N(C)S(C)(=O)=O)nc1C(C)C)OC2=O	16	14.1	18.4	2.2	–
Cc1ccc2c(c1C)/C(=C/COCc1c(-c3ccc(F)cc3)nc(N(C)S(C)(=O)=O)nc1C(C)C)OC2=O	18.9	21.6	19.9	1.9	–
COc1ccc2c(c1)/C(=C/COCc1c(-c3ccc(F)cc3)nc(N(C)S(C)(=O)=O)nc1C(C)C)OC2=O	35.1	38.6	38.3	3.8	–
Cc1ccc2c(c1)C(=O)O/C2=C\COCc1c(-c2ccc(F)cc2)nc(N(C)S(C)(=O)=O)nc1C(C)C	24.3	29.6	22.5	1.6	–
COc1ccc2c(=O)oc(COCc3c(-c4ccc(F)cc4)nc(N(C)S(C)(=O)=O)nc3C(C)C)cc2c1	41.8	39.7	40.1	3.4	–
CC(C)c1nc(N(C)S(C)(=O)=O)nc(-c2ccc(F)cc2)c1COC/C=C1\OC(=O)c2cc(Cl)ccc21	24.7	21.3	27	2.9	–
CC(C)c1nc(N(C)S(C)(=O)=O)nc(-c2ccc(F)cc2)c1COC/C=C1\OC(=O)c2cccc(Cl)c21	25.5	22.1	26.8	3.7	–
CC(C)c1nc(N(C)S(C)(=O)=O)nc(-c2ccc(F)cc2)c1COC/C=C1\OC(=O)c2ccccc21	20.2	19.3	52.3	2.1	–
COc1cc2c(cc1OC)/C(=C/COCc1c(-c3ccc(F)cc3)nc(N(C)S(C)(=O)=O)nc1C(C)C)OC2=O	53.7	50.1	69.8	4.3	inhibition (PANC-1 [6]): Active; inhibition (PANC-1 [7]): Active; inhibition (PANC-1 [8]): Active; pIC50 [9]: < 5.00; Activity [13]: Non-Toxic; Activity [14]: Non-Toxic; Activity [15]: Non-Toxic; Activity [16]: Non-Toxic; Activity [17]: Non-Toxic; Activity [18]: -10.9 kcal/mol; Activity [19]: -9.9 kcal/mol; pIC50 [20]: 5.43
COc1ccc2c(c1)C(=O)O/C2=C\COCc1c(-c2ccc(F)cc2)nc(N(C)S(C)(=O)=O)nc1C(C)C	33.5	39.3	46.5	3.2	–
COc1cccc2c1C(=O)c1c(O)c3c(c(O)c1C2=O)C[C@@](O)(C(=O)CO)C[C@@H]3O[C@H]1C[C@H](N)[C@H](O)[C@H](C)O1 [DOXORUBICIN]	61	57	81.3	–	Activity [18]: -8.8 kcal/mol; Activity [19]: -8.6 kcal/mol
CC(C)c1nc(N(C)S(C)(=O)=O)nc(-c2ccc(F)cc2)c1COCc1cc2ccc(Cl)cc2c(=O)o1	23.4	20.6	20.9	2.3	–
CC(C)c1nc(N(C)S(C)(=O)=O)nc(-c2ccc(F)cc2)c1COCc1cc2ccc(F)cc2c(=O)o1	36.9	33.2	28.9	3.1	–
COc1ccc2cc(COCc3c(-c4ccc(F)cc4)nc(N(C)S(C)(=O)=O)nc3C(C)C)oc(=O)c2c1	43.2	39.1	38.3	3.7	–
Cc1ccc2cc(COCc3c(-c4ccc(F)cc4)nc(N(C)S(C)(=O)=O)nc3C(C)C)oc(=O)c2c1	26	24.1	28.4	3.2	–
CC(C)c1nc(N(C)S(C)(=O)=O)nc(-c2ccc(F)cc2)c1COC/C=C1\OC(=O)c2cc(Br)ccc21	13.6	20.4	21.8	1.9	–
CC(C)c1nc(N(C)S(C)(=O)=O)nc(-c2ccc(F)cc2)c1COCc1cc2cc(Cl)ccc2c(=O)o1	19.8	10.9	16.8	1.3	–
CC(C)c1nc(N(C)S(C)(=O)=O)nc(-c2ccc(F)cc2)c1COC/C=C1\OC(=O)c2ccc(Cl)cc21	29.3	12.6	19.4	3.3	–
CC(C)c1nc(N(C)S(C)(=O)=O)nc(-c2ccc(F)cc2)c1COCc1cc2ccc(Br)cc2c(=O)o1	21.7	23.5	18.7	2.8	–
CC(C)c1nc(N(C)S(C)(=O)=O)nc(-c2ccc(F)cc2)c1COC/C=C1\OC(=O)c2cc(F)ccc21	18.3	26.7	18.9	3.1	–
